“Also recorded” adds a separate entry of the source. Like-named read-outs stand apart in the source and are kept apart here. Values belong to the compound of their own block, whether it stands above or below them.
Tests used:
myopia-induced mouse [1] = experiment: Eyedrop administration of UPR inhibitors during myopia induction in mouse: axial elongation and refraction (Test Example 2); assay type: in vivo; conditions: eyedrop once a day for 10 days during myopia induction; 100 μM each (STF 60 μM); -30 D lens eye
Description: Specifically, a myopia-induced mouse is produced as follows.
During the myopia induction, 60 μM STF080312 (STF), 100 μM 4μ8C (4μ8C), 100 μM GSK2656157 (GSK), 100 μM GSK2606414 (GSK2606414), 100 μM Nelfinavir Mesylate hydrate (NFV), or 100μM Ceapin-A7 (Ceapin) was eye-dropped to both eyes once a day every day in the evening for 10 days.
It is said that increase of expression of URP gene pathway is a cause of pathologic axial elongation and scleral thinning in high myopia (Patent Literature 1). Therefore, in this Test Example 2, it was evaluated, in the sclera of a myopia-induced mouse in which scleral thinning had been caused, how the phenotype of axial elongation was affected by a known URP gene inhibitor. It is noted that GSK2656157 (GSK) and GSK2606414 were used as the PERK inhibitor, Nelfinavir Mesylate hydrate (NFV) and Ceapin-A7 were used as the ATF6 inhibitor, and STF080312 (STF) and 4μ8C were used as the IRE1 inhibitor (FIG. 4).
In accordance with the test method described above, the axial elongation caused in using each of the various gene inhibitors in a myopia-induced mouse was evaluated (FIG. 4).
FIGS. 5a and 5b illustrate axial elongation (a) and refraction change (b) obtained after eyedrop administration of 60 μM STF, 100 μM GSK, or 100 μM NFV once a day for 10 days during the myopia induction period of the mouse. Besides, FIGS. 5c and 5d illustrate axial elongation (a) and refraction change (b) obtained after similarly eyedrop administration of a combination of these inhibitors (STF+GSK:S+G, GSK+NFV:G+N, NFV+STF:N+S, or STF+GSK+NTF:S+G+N). Besides, FIG. 6 illustrates axial elongation (a) and refraction change (b) obtained after similarly eyedrop administration of 100 μM GSK2606414, Ceapin-A7, or 4μ8C.

myopia-induced mouse [2] = experiment: Intraperitoneal injection of 4-PBA or TUDCA during myopia induction in mouse: axial elongation and refraction (Test Example 3)
Description: Specifically, a myopia-induced mouse is produced as follows. It is noted that myopia induction, and measurement of an axial length and refraction were performed by methods similar to those described in Non Patent Literatures 6 and 7. First, a male C57BL6J mouse was put in a standard transparent cage under a 12/12 h light/dark cycle in a temperature controlled clean room. The animal was allowed to free access to standard feed and autoclaved tap water. A 3-week-old mouse immediately after weaning was anesthetized with a mixed anesthetic of three anesthetics, that is, Domitor (Nippon Zenyaku Kogyo Co., Ltd.), Butorphanol (Meiji Seika Pharma Co., Ltd.), and Midazolam (Sandoz K. K.), and the skull was exposed with scissors. As illustrated in FIG. 1(b), a post was provided to stand on the skull, and fixed with dental cements (Super-Bond, Sun Medical Company, Ltd.). The post was provided with a screw thread so that an adjustor described below could be fixed thereon with a nut.
For inducing myopia, a minus lens having a power of −30 diopters (D) (Rainbow Contact, RAINBOW OPTICAL LABORATORY CO., LTD.) was worn on the right eye (myopia-induced eye), and a lens having a power of 0 D or only a frame was worn as a control on the left eye (control eye). […] The protector used here was attached to be integral with the frame portion, but the protector needs not be integral with the lens as long as the lens is not damaged by the behavior of the mouse.
Sodium phenylbutyrate (Cayman Chemical, MI, USA) and tauroursodeoxycholic acid (Sigma Aldrich, Tokyo, Japan) were dissolved in PBS. STF080310 (Selleck Biotech, Tokyo, Japan) or 4μ8C (Selleck Biotech) of an IRE1 inhibitor, GSK2656157 (Selleck Biotech) or GSK2606414 (Selleck Biotech) of a PERK inhibitor, and Nelfinavir Mesylate hydrate (Tokyo Chemical Industry Co., Ltd.) or Ceapin-A7 (Sigma Aldrich) of an ATF6 inhibitor were dissolved in DMSO, and the resultant was diluted to 1:1000 with PBS to be used in an eyedrop test.
(§1) A solution of sodium phenylbutyrate in PBS (4-PBA; 200 mg/kg) or tauroursodeoxycholic acid (TUDCA; 100 mg/kg) was intraperitoneally injected (i.p.) every day during the myopia induction period.

[3] = system: myopia-induced juvenile mouse; conditions: -30 D lens wearing group
Description: It was examined whether or not a difference in the dosage form of 4-PBA affects the change in the lens. In accordance with the description given above in “Experimental Method”, 4-PBA was eye-dropped or intraperitoneally administered to a myopia-induced juvenile mouse, and the thickness of the lens was measured with SD-OCT in the same manner as in the measurement of the axial length.

[4] = for 4-PBA Concentration, Choroid / 4-PBA Concentration, Plasma / 4-PBA Concentration, Retina (right) / 4-PBA Concentration, Sclera: 200 mg/kg intraperitoneally for 1 week
Description: Pharmacokinetics in the eye tissue obtained by systemic administration of 4-PBA was confirmed. A specific test method was as follows.
4-PBA (200 mg/kg) was intraperitoneally administered for 1 week. One hour after the last administration, the eyeball was excised, and respective tissues were separated. Tissues from 16 mice (32eyeballs) were pooled to be used as 1 sample, and frozen with liquid nitrogen to be stored until measurement. Before the measurement by LC-MS/MS, a 9-fold weight of methanol/water (1:1, v/v) was added thereto for homogenization, and the resultant was centrifuged (10000×g, 4°° C., 5 minutes) to use a supernatant in analysis.
As a standard reagent, 4-phenylbutyric acid (Tokyo Chemical Industry Co., Ltd.) was used, and LC-MS/MS (LC-20AD system: Shimadzu Corporation, API4000: SCIEX, Tokyo, Japan), and HPLC column, Atlantis dc18 (5 μm, 2.1 mm ID×150 mm, Waters) were used. As a mobile phase, formic acid/water (1:10000, v/v) and acetonitrile were used, and during the analysis, the gradient of each mobile phase was maintained at 50%. A sample injection amount was set to 10 μL, a column temperature was set to 50° C., and a flow rate was set to 0.2 mL/min.
As mass spectrometry (MS) conditions, negative mode electrospray ionization (ESI) was employed, and ion was measured by multiple reaction monitoring (MRM).

[5] = system: PERK pathway and ATF6 pathway
Description: as §1
(§2) Quantitative real-time PCR was performed using StepOnePlus Realtime PCR system with PowerUp SYBR Green Master Mix (Applied Biosystems, CA, USA). Expression level was standardized using B-actin.

scleral collagen fibers = system: scleral collagen fibers
Description: After experimental intervention and eye parameter measurement, the eyeball was excised from the C57BL6J mouse. For transmission electron microscopic observation, the eyeball of the mouse was fixed in ice-cooled 2.5% glutaraldehyde in PBS for 1 hour, and then was cut along the sagittal plane. The cornea and the lens were excised, and the remaining tissue was further fixed in 2.5% glutaraldehyde/60 mM HEPES buffer (pH 7.4) overnight. The resultant specimen was washed with 60 mM HEPES buffer, and was then incubated in 1% tetroxide osmium/60 mM HEPES buffer at 4° C. for 2 hours, and the resultant was dehydrated through ethanol series, exchanged and embedded in Epon 812 (EM Japan, Tokyo, Japan). After the embedding, the resultant block was sliced into 70 nm, and stained with uranyl acetate and lead citrate. The resultant section was visualized with JEM-1400Plus (JEOL LTD., Tokyo, Japan).
The sclera is a tissue mainly containing collagen, and it is said that collagen fiber narrowing is involved in scleral thinning (see Non Patent Literature 5).

myopia-induced mouse [6] = conditions: 2% 4-PBA eye-dropped every day after myopia induction
Description: A solution of 2% sodium phenylbutyrate in PBS (4-PBA) was eye-dropped to both eyes of a myopia induced mouse once a day every day in the evening for 10 days after completing the myopia induction period corresponding to human adulthood. It is noted that administration schedule during the myopia induction period (LIM) and after completing the period is schematically illustrated in FIG. 11.
It was evaluated whether or not axial elongation is inhibited by eyedrop administration of 4-PBA after the myopia induction period (6 weeks old to 8 weeks old), namely, in a period, corresponding to adulthood in a human, when a posterior segment eye disorder is caused by scleral thinning (FIG. 11) differently from the eyedrop administration in the myopia induction period (3 weeks old to 6 weeks old) in a mouse model simulating myopia progression in childhood as described in Patent Literature 1.

collagen 1A1 (COL1A1) = conditions: 2% 4-PBA eyedrop
Description: A protein (10 μg/well) of the sclera was separated by SDS-PAGE, transferred onto a PVDF membrane (Merck Millipore, MA, USA), blocked with Blocking One (Nacalai Tesque, Tokyo), and incubated together with anti-ATF6 (BioAcademia), phosphorylation-IRE1 (Ser724, Abcam, Cambridge, UL), IRE1, phosphorylation-eIF2α, eIF2α, and β-actin (Cell Signaling Technologies Japan, Tokyo, Japan) antibodies at 4° C. overnight. The resultant membrane was incubated with an appropriate HRP-bound secondary antibody, and the resultant was visualized with EzWestLumi plus (ATTA, Tokyo, Japan). SDS-PAGE was performed in a 10% acrylamide gel with a protein size marker (Magic Mark XP Western Protein Standard, ThermoFisher Scientific). The concentration measurement and analysis was performed using Image J software.
as §2
4-PBA was administered by eyedrop to a mouse myopia induction model to confirm its influence on collagen 1A1 (COL1A1) and the like corresponding to principal collagens for maintaining the shape of the eyeball. A specific test method was as follows.
PBS (Veh) or 2% 4-PBA was eye-dropped to a myopia-induced mouse, and collagen 1A1 in the sclera (n=7) was evaluated by Western blotting method, and expression of collagen-related mRNA was evaluated by quantitative PCR.

[7] = TUDCA 100 mg/kg intraperitoneal injection during myopia induction
[8] = 4-PBA 200 mg/kg/day intraperitoneal injection, 1st week and 3rd week of myopia induction (LIM)

Compound: Cc1cc(=O)oc2c(C=O)c(O)ccc12 [4μ8C]
axial elongation of myopia-induced eye (myopia-induced mouse [1]): neither axial elongation nor myopic refraction was inhibited
myopic refraction of myopia-induced eye (myopia-induced mouse [1]): neither axial elongation nor myopic refraction was inhibited

Compound: O=C(Nc1cnn(Cc2ccc(C(F)(F)F)cc2C(F)(F)F)c1)c1cc(-c2ccco2)on1 [Ceapin-A7]
axial elongation of myopia-induced eye (myopia-induced mouse [1]): neither axial elongation nor myopic refraction was inhibited
myopic refraction of myopia-induced eye (myopia-induced mouse [1]): neither axial elongation nor myopic refraction was inhibited

Compound: Cn1cc(-c2ccc3c(c2)CCN3C(=O)Cc2cccc(C(F)(F)F)c2)c2c(N)ncnc21 [GSK2606414]
axial elongation of myopia-induced eye (myopia-induced mouse [1]): neither axial elongation nor myopic refraction was inhibited
myopic refraction of myopia-induced eye (myopia-induced mouse [1]): neither axial elongation nor myopic refraction was inhibited

Compound: C[C@H](CCC(=O)NCCS(=O)(=O)O)[C@H]1CC[C@H]2[C@@H]3[C@@H](O)C[C@@H]4C[C@H](O)CC[C@]4(C)[C@H]3CC[C@]12C [TUDCA, tauroursodeoxycholic acid]
axial elongation (pathologic, myopia-induced eye) (myopia-induced mouse [2]; [7]): pathologic axial elongation alone was inhibited; also recorded: the axial elongation is inhibited
myopic refraction (myopia-induced mouse [2]; [7]): the myopic refraction is inhibited
physiological axial elongation (myopia-induced mouse [2]; mouse, in vivo): physiological axial elongation was not inhibited

4-PBA Concentration, Choroid ([4]; 15 min after administration): 348 ng/g or ng/mL
4-PBA Concentration, Plasma ([4]; 15 min after administration): 394 ng/g or ng/mL
4-PBA Concentration, Retina (right) ([4]; 15 min after administration): 349 ng/g or ng/mL
4-PBA Concentration, Sclera ([4]; 15 min after administration): 203 ng/g or ng/mL
4-PBA Concentration, Choroid ([4]; 30 min after administration): 117 ng/g or ng/mL
4-PBA Concentration, Plasma ([4]; 30 min after administration): 186 ng/g or ng/mL
4-PBA Concentration, Retina (right) ([4]; 30 min after administration): 88.2 ng/g or ng/mL
4-PBA Concentration, Sclera ([4]; 30 min after administration): 107 ng/g or ng/mL
4-PBA Concentration, Choroid ([4]; 60 min after administration): 76.7 ng/g or ng/mL
4-PBA Concentration, Plasma ([4]; 60 min after administration): 76.2 ng/g or ng/mL
4-PBA Concentration, Retina (right) ([4]; 60 min after administration): 27.9 ng/g or ng/mL
4-PBA Concentration, Sclera ([4]; 60 min after administration): 44.9 ng/g or ng/mL
detection of 4-PBA in the retina, the choroid and the sclera ([4]; intraperitoneally administered): detected
Compound: sodium phenylbutyrate [4-PBA]
lens thickening through myopia induction (LIM) ([3]; 4-PBA administered by eyedrop): lens thickening was not caused
lens thickening through myopia induction (LIM) ([3]; intraperitoneal administration of 4-PBA): did not affect lens thickening
UPR gene expression in the sclera (increase in myopia induced eyes) ([5]; 4-PBA 200 mg/kg/day administered, quantitative PCR): the increase is inhibited by 4-PBA
expression of genes disposed downstream of the PERK pathway and the ATF6 pathway ([5]; eyedrop administration of 2% 4-PBA, FIG. 7): significantly inhibited
narrowing of collagen fibers in the sclera (scleral collagen fibers; 4-PBA administered every day over the myopia-induced period, TEM, FIG. 10a): the narrowing of collagen fibers in the sclera was inhibited
scleral collagen fiber cross-sectional area profile (scleral collagen fibers; eyedrop administration of 2% 4-PBA, FIG. 10b): the area profile was restored to the original one
myopic refraction after completing the myopia induction (myopia-induced mouse [6]): tended to be inhibited
adulthood axial elongation after completing the myopia induction (myopia-induced mouse [6]; 1st and 3rd weeks): tended to inhibit
collagen 1A1 (COL1A1) protein in the sclera (reduction induced by myopia) (collagen 1A1 (COL1A1); Western blotting): can be cancelled
collagen 1A1 (COL1A1) mRNA in the sclera (reduction induced by myopia) (collagen 1A1 (COL1A1); quantitative PCR): can be cancelled
mRNAs of Col4a3, Col8a2, Col11a2, and Col15a1 in the sclera (increase by myopia induction) (collagen 1A1 (COL1A1); quantitative PCR): the increase was cancelled
axial elongation (myopia-induced mouse [2]; [8]): the axial elongation is inhibited
myopic refraction (myopia-induced mouse [2]; [8]): the myopic refraction is inhibited
